Experimental data as given in patent publication US11919887B2, “Substituted tetrahydrofurans as modulators of sodium channels” (Vertex Pharmaceuticals Incorporated, priority 2019, dated 2024).
pIC50: −log10 of the molar value. Read-outs that look alike come from different tables or passages of the source.

Molecular target: human Nav 1.8 (Homo sapiens, UniProt Q9Y5Y9)
Test: E-VIPR assay detecting and measuring Nav inhibition (HEK cells expressing truncated human Nav 1.8)
Format: cell-based
Outline: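 HEK cells expressing truncated human Nav1.8, transduced with KIR2.1 BacMam, were loaded with CC2-DMPE/DiSBAC6(3) FRET dyes and tested under electrical stimulation (E-VIPR). Compounds were run as 11-point 3-fold dilutions, top 300 nM final, 0.625% DMSO, with or without 25% human serum.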

[1] = in the Absence of Human Serum in the E-VIPR Assay, read-out: IC50
[2] = in the Presence of Human Serum in the E-VIPR Assay, read-out: IC50
[3] = in the Presence of Human Serum in the E-VIPR Assay

human Nav 1.8, sequence (Q9Y5Y9 whole entry, looked up, the tested form may be a part): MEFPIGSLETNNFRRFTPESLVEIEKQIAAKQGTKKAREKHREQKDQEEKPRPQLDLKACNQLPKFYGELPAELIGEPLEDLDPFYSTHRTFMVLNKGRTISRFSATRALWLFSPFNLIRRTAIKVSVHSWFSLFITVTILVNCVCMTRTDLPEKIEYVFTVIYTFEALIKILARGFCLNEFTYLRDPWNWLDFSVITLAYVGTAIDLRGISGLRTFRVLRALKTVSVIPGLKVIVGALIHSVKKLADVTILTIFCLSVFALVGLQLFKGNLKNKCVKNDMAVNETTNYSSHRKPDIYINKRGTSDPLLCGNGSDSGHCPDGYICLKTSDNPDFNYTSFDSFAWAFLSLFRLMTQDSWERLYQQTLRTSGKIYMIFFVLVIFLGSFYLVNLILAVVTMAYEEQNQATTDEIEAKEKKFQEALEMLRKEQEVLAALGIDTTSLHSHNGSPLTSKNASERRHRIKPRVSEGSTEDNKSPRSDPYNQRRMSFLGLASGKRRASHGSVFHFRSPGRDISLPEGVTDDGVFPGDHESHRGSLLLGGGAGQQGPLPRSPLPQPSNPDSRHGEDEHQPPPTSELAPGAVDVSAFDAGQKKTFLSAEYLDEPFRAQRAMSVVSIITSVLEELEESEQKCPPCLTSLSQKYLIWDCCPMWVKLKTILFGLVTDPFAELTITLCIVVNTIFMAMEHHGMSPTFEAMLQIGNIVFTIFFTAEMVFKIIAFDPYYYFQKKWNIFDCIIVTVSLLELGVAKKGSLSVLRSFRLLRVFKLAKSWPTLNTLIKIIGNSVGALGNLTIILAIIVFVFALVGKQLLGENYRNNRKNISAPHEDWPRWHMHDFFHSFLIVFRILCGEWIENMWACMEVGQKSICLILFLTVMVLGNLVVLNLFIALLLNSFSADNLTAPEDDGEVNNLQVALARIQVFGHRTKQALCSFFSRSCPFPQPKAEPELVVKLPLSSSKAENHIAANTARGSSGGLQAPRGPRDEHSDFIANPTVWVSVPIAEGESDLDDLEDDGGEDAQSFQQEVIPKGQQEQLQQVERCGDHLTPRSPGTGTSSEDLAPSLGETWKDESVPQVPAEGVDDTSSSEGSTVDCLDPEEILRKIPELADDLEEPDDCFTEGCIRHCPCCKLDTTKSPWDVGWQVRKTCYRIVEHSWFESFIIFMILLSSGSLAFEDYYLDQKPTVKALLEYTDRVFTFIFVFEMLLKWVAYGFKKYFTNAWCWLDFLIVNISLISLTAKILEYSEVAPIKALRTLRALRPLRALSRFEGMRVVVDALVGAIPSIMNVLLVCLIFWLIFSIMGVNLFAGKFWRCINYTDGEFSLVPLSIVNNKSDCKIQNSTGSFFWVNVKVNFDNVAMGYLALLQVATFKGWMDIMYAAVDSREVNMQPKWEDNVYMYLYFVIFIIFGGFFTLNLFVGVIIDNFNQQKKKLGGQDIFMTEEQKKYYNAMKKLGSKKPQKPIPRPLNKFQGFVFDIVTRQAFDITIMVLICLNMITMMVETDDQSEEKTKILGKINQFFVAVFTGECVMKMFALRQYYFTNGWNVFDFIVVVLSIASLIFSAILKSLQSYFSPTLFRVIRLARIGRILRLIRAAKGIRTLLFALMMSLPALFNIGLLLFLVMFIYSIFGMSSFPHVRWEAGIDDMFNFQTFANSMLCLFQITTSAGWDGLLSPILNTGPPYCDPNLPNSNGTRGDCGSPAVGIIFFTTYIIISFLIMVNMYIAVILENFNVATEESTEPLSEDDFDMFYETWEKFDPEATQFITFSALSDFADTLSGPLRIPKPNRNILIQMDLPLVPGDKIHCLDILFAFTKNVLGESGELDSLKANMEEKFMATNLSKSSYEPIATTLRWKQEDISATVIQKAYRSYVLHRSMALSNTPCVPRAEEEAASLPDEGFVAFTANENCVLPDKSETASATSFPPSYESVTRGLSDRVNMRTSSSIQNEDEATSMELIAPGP

With `COc1nc(C(F)F)ccc1[C@@H]1[C@@H](C(=O)Nc2ccnc(C(N)=O)c2)O[C@](C)(C(F)(F)F)[C@@H]1C` (stereo in doubt) [Compound 141, rel-(2S,3R,4R,5S)-4-[[3-[6-(difluoromethyl)-2-methoxy-3-pyridyl]-4,5-dimethyl-5-(trifluoromethyl)tetrahydrofuran-2-carbonyl]amino]pyridine-2-carboxamide] the pIC50 [1] was under 6.00.
`Cc1cnc(C(N)=O)cc1NC(=O)[C@@H]1O[C@@](C)(C(F)(F)F)[C@@H](C)[C@H]1c1ccc(F)c(F)c1OC(F)F` (stereo in doubt) [Compound 150, rel-(2R,3S,4S,5R)-4-[[3-[2-(difluoromethoxy)-3,4-difluoro-phenyl]-4,5-dimethyl-5-(trifluoromethyl)tetrahydrofuran-2-carbonyl]amino]-5-methyl-pyridine-2-carboxamide] gave a pIC50 [2] of under 6.00.
Work on `Cc1cnc(C(N)=O)cc1NC(=O)[C@H]1O[C@](C)(C(F)(F)F)[C@H](C)[C@@H]1c1ccc(F)c(F)c1OC(F)F` (stereo in doubt) [Compound 151, rel-(2S,3R,4R,5S)-4-[[3-[2-(difluoromethoxy)-3,4-difluoro-phenyl]-4,5-dimethyl-5-(trifluoromethyl)tetrahydrofuran-2-carbonyl]amino]-5-methyl-pyridine-2-carboxamide] yielded a pIC50 [2] of 7.00 to 8.00.
Compound `Cc1c(F)ccc([C@@H]2[C@@H](C(=O)Nc3ccnc(C(N)=O)c3)O[C@](C)(C(F)(F)F)[C@@H]2C)c1OC(F)F` (stereo in doubt) [compound 53] has a pIC50 [2] of over 8.00.
`COc1c([C@@H]2[C@@H](C(=O)Nc3ccnc(C(N)=O)c3)O[C@](C)(C(F)(F)F)[C@@H]2C)ccc(F)c1F` [Compound 6, (2S,3R,4R,5S)-4-[[3-(3,4-difluoro-2-methoxy-phenyl)-4,5-dimethyl-5-(trifluoromethyl)tetrahydrofuran-2-carbonyl]amino]pyridine-2-carboxamide] was tested, and the pIC50 [3] was under 6.00.
`COc1c([C@H]2[C@H](C(=O)Nc3ccnc(C(N)=O)c3)O[C@@](C)(C(F)(F)F)[C@H]2C)ccc(F)c1F` [Compound 7, (2R,3S,4S,5R)-4-[[3-(3,4-difluoro-2-methoxy-phenyl)-4,5-dimethyl-5-(trifluoromethyl)tetrahydrofuran-2-carbonyl]amino]pyridine-2-carboxamide] was tested, and the pIC50 [3] was over 8.00.
Compound `CCOc1c([C@@H]2[C@@H](C(=O)Nc3ccnc(C(N)=O)c3)O[C@](C)(C(F)(F)F)[C@@H]2C)ccc(F)c1F` [Compound 8, (2S,3R,4R,5S)-4-[[3-(2-ethoxy-3,4-difluoro-phenyl)-4,5-dimethyl-5-(trifluoromethyl)tetrahydrofuran-2-carbonyl]amino]pyridine-2-carboxamide] has a pIC50 [2] of under 6.00.
`CCOc1c([C@H]2[C@H](C(=O)Nc3ccnc(C(N)=O)c3)O[C@@](C)(C(F)(F)F)[C@H]2C)ccc(F)c1F` [Compound 9, (2R,3S,4S,5R)-4-[[3-(2-ethoxy-3,4-difluoro-phenyl)-4,5-dimethyl-5-(trifluoromethyl)tetrahydrofuran-2-carbonyl]amino]pyridine-2-carboxamide] showed a pIC50 [2] of over 8.00.
In the case of `C[C@@H]1[C@H](c2ccc(F)c(F)c2OC(F)F)[C@@H](C(=O)Nc2ccnc(C(N)=O)c2)O[C@]1(C)C(F)(F)F` [Compound 10, (2S,3R,4R,5S)-4-[[3-[2-(difluoromethoxy)-3,4-difluoro-phenyl]-4,5-dimethyl-5-(trifluoromethyl)tetrahydrofuran-2-carbonyl]amino]pyridine-2-carboxamide], the pIC50 [2] was under 6.00.
Compound `C[C@H]1[C@@H](c2ccc(F)c(F)c2OC(F)F)[C@H](C(=O)Nc2ccnc(C(N)=O)c2)O[C@@]1(C)C(F)(F)F` [Compound 11, (2R,3S,4S,5R)-4-[[3-[2-(difluoromethoxy)-3,4-difluoro-phenyl]-4,5-dimethyl-5-(trifluoromethyl)tetrahydrofuran-2-carbonyl]amino]pyridine-2-carboxamide] has a pIC50 [2] of over 8.00.
For `C[C@H]1[C@@H](c2ccc(F)c(F)c2OC(F)F)[C@H](C(=O)Nc2cc[n+]([O-])c(C(N)=O)c2)O[C@@]1(C)C(F)(F)F` [Compound 18, (2R,3S,4S,5R)-4-[[3-[2-(difluoromethoxy)-3,4-difluoro-phenyl]-4,5-dimethyl-5-(trifluoromethyl)tetrahydrofuran-2-carbonyl]amino]-1-oxido-pyridin-1-ium-2-carboxamide], the pIC50 [2] was over 8.00.
For `COc1c([C@H]2[C@H](C(=O)Nc3cc[n+]([O-])c(C(N)=O)c3)O[C@@](C)(C(F)(F)F)[C@H]2C)ccc(F)c1F` [Compound 19, (2R,3S,4S,5R)-4-[[3-(3,4-difluoro-2-methoxy-phenyl)-4,5-dimethyl-5-(trifluoromethyl)tetrahydrofuran-2-carbonyl]amino]-1-oxido-pyridin-1-ium-2-carboxamide], the pIC50 [2] was over 8.00.
Compound `COc1c([C@H]2C[C@](C)(C(F)(F)F)O[C@@H]2C(=O)Nc2ccnc(C(N)=O)c2)ccc(F)c1Cl` [Compound 21, (2S,3R,5R)-4-[[3-(3-chloro-4-fluoro-2-methoxy-phenyl)-5-methyl-5-(trifluoromethyl)tetrahydrofuran-2-carbonyl]amino]pyridine-2-carboxamide] has a pIC50 [2] of under 6.00.
`COc1c([C@@H]2C[C@@](C)(C(F)(F)F)O[C@H]2C(=O)Nc2ccnc(C(N)=O)c2)ccc(F)c1Cl` [Compound 23, (2R,3S,5S)-4-[[3-(3-chloro-4-fluoro-2-methoxy-phenyl)-5-methyl-5-(trifluoromethyl)tetrahydrofuran-2-carbonyl]amino]pyridine-2-carboxamide] showed a pIC50 [2] of 7.00 to 8.00.
With `C[C@H]1[C@@H](c2ccc(F)c(F)c2O)[C@H](C(=O)Nc2ccnc(C(N)=O)c2)O[C@@]1(C)C(F)(F)F` [Compound 27, (2R,3S,4S,5R)-4-[[3-(3,4-difluoro-2-hydroxy-phenyl)-4,5-dimethyl-5-(trifluoromethyl)tetrahydrofuran-2-carbonyl]amino]pyridine-2-carboxamide] the pIC50 [2] was 7.00 to 8.00.
In the case of `COc1c([C@@H]2[C@@H](C)[C@](C)(C(F)(F)F)O[C@H]2C(=O)Nc2ccnc(C(N)=O)c2)ccc(F)c1F` [Compound 50, 4-[[(2R,3S,4R,5R)-3-(3,4-difluoro-2-methoxy-phenyl)-4,5-dimethyl-5-(trifluoromethyl)tetrahydrofuran-2-carbonyl]amino]pyridine-2-carboxamide], the pIC50 (in the Absence of Human Serum in the E-VIPR Assay) was 7.00 to 8.00.
`CCOc1c([C@H]2[C@H](C(=O)Nc3cc[n+]([O-])c(C(N)=O)c3)O[C@@](C)(C(F)(F)F)[C@H]2C)ccc(F)c1F` [Compound 55, (2R,3S,4S,5R)-4-[[3-(2-ethoxy-3,4-difluoro-phenyl)-4,5-dimethyl-5-(trifluoromethyl)tetrahydrofuran-2-carbonyl]amino]-1-oxido-pyridin-1-ium-2-carboxamide] gave a pIC50 [2] of over 8.00.
For `[2H]C([2H])([2H])Oc1c([C@H]2[C@H](C(=O)Nc3cc[n+]([O-])c(C(N)=O)c3)O[C@@](C)(C(F)(F)F)[C@H]2C)ccc(F)c1F` [Compound 56, 4-[[(2R,3S,4S,5R)-3-[3,4-difluoro-2-(trideuteriomethoxy)phenyl]-4,5-dimethyl-5-(trifluoromethyl)tetrahydrofuran-2-carbonyl]amino]-1-oxido-pyridin-1-ium-2-carboxamide], the pIC50 [2] was over 8.00.
Work on `C[C@H]1[C@@H](c2ccc(F)c(F)c2O)[C@H](C(=O)Nc2cc[n+]([O-])c(C(N)=O)c2)O[C@@]1(C)C(F)(F)F` [Compound 57, 4-[[(2R,3S,4S,5R)-3-(3,4-difluoro-2-hydroxy-phenyl)-4,5-dimethyl-5-(trifluoromethyl)tetrahydrofuran-2-carbonyl]amino]-1-oxido-pyridin-1-ium-2-carboxamide] yielded a pIC50 [2] of under 6.00.
In the case of `COc1c([C@@H]2[C@H](C)[C@H](C(C)C)O[C@H]2C(=O)Nc2ccnc(C(N)=O)c2)ccc(F)c1F` [Compound 113, 4-[[(2R,3S,4S,5S)-3-(3,4-difluoro-2-methoxy-phenyl)-5-isopropyl-4-methyl-tetrahydrofuran-2-carbonyl]amino]pyridine-2-carboxamide], the pIC50 [2] was 7.00 to 8.00.
In the case of `COc1c([C@H]2[C@H](C(=O)Nc3cccc(C(N)=O)n3)O[C@@](C)(C(F)(F)F)[C@H]2C)ccc(F)c1F` [Compound 114, 6-[[(2R,3S,4S,5R)-3-(3,4-difluoro-2-methoxy-phenyl)-4,5-dimethyl-5-(trifluoromethyl)tetrahydrofuran-2-carbonyl]amino]pyridine-2-carboxamide], the pIC50 [1] was 7.00 to 8.00.
For `COc1c([C@H]2[C@H](C(=O)Nc3cncc(C(N)=O)n3)O[C@@](C)(C(F)(F)F)[C@H]2C)ccc(F)c1F` [Compound 117, 6-[[(2R,3S,4S,5R)-3-(3,4-difluoro-2-methoxy-phenyl)-4,5-dimethyl-5-(trifluoromethyl)tetrahydrofuran-2-carbonyl]amino]pyrazine-2-carboxamide], the pIC50 [1] was 7.00 to 8.00.
In the case of `COc1c([C@H]2[C@H](C(=O)Nc3cncc(C(N)=O)c3)O[C@@](C)(C(F)(F)F)[C@H]2C)ccc(F)c1F` [Compound 118, 5-[[(2R,3S,4S,5R)-3-(3,4-difluoro-2-methoxy-phenyl)-4,5-dimethyl-5-(trifluoromethyl)tetrahydrofuran-2-carbonyl]amino]pyridine-3-carboxamide], the pIC50 [1] was over 8.00.
`COc1c([C@H]2[C@H](C(=O)Nc3cc(C(N)=O)ncc3C)O[C@@](C)(C(F)(F)F)[C@H]2C)ccc(F)c1F` [Compound 119, 4-[[(2R,3S,4S,5R)-3-(3,4-difluoro-2-methoxy-phenyl)-4,5-dimethyl-5-(trifluoromethyl)tetrahydrofuran-2-carbonyl]amino]-5-methyl-pyridine-2-carboxamide] gave a pIC50 [1] of over 8.00.
In the case of `COc1c([C@H]2[C@H](C(=O)Nc3cc(C(N)=O)ccn3)O[C@@](C)(C(F)(F)F)[C@H]2C)ccc(F)c1F` [Compound 120, 2-[[(2R,3S,4S,5R)-3-(3,4-difluoro-2-methoxy-phenyl)-4,5-dimethyl-5-(trifluoromethyl)tetrahydrofuran-2-carbonyl]amino]pyridine-4-carboxamide], the pIC50 [1] was 7.00 to 8.00.
